Experimental data reported in the OPERA property sets (Mansouri et al. 2018).

Row | Compound | logP
1 | Cc1sc(S(C)=O)c([N+](=O)[O-])c1C (stereo not drawn) | 2.65
2 | CS(=O)c1scc(-c2ccccc2)c1[N+](=O)[O-] (stereo not drawn) | 3.2
3 | CS(=O)c1sc(C#N)cc1C#N (stereo not drawn) | 1.31
4 | Cc1c(C#N)sc(S(C)=O)c1-c1ccccc1 (stereo not drawn) | 3.36
5 | Cc1c(C#N)sc(S(C)=O)c1-c1ccc(Cl)cc1 (stereo not drawn) | 3.8
6 | CS(=O)c1sc(C#N)c(Cl)c1C#N (stereo not drawn) | 2.15
7 | CCS(=O)c1sc(C(C)=O)c(Cl)c1C#N (stereo not drawn) | 2.64
8 | CC(C)CS(=O)c1sccc1[N+](=O)[O-] (stereo not drawn) | 2.93
9 | CS(=O)c1sccc1[N+](=O)[O-] (stereo not drawn) | 1.69
10 | CCCS(=O)c1sc(C#N)cc1C#N (stereo not drawn) | 2.18
11 | CCCCCC1(c2ccc(S(=O)CC)c([N+](=O)[O-])c2)OCCO1 (stereo not drawn) | 5.11
12 | CS(=O)c1nc(-c2ccccc2)cc(C(F)(F)F)n1 (stereo not drawn) | 3.01
13 | CCCS(=O)c1sccc1[N+](=O)[O-] (stereo not drawn) | 2.52
14 | CCS(=O)c1ccc(C(=O)c2ccccc2)cc1[N+](=O)[O-] (stereo not drawn) | 3.82
15 | CCS(=O)c1ccc(Cl)cc1S(C)(=O)=O (stereo not drawn) | 2.31
16 | CCS(=O)c1ccc2ccccc2n1 (stereo not drawn) | 2.43
17 | CS(=O)c1sccc1C#N (stereo not drawn) | 0.96
18 | CS(=O)c1ccc([N+](=O)[O-])s1 (stereo not drawn) | 1.4
19 | CCS(=O)c1ccc([N+](=O)[O-])cn1 (stereo not drawn) | 1.74
20 | CCS(=O)c1sc(Cl)cc1C#N (stereo not drawn) | 2.31
21 | CCS(=O)c1nc(C)cc(C)c1C#N (stereo not drawn) | 1.77
22 | CCCS(=O)c1sc(C#N)c(Cl)c1C#N (stereo not drawn) | 2.95
23 | CCS(=O)c1sc(C#N)c(OC)c1C#N (stereo not drawn) | 2.35

Further lines, results first:

Row | logP | Compound
24 | 0.91 | CS(=O)c1cccs1 (stereo not drawn)
25 | 1.71 | CS(=O)c1sccc1Br (stereo not drawn)
26 | 3.31 | CC(=O)c1sc(S(C)=O)c(C#N)c1-c1ccc(Cl)cc1 (stereo not drawn)
27 | 4.36 | CCCCCC(=O)c1ccc(S(=O)CC)c([N+](=O)[O-])c1 (stereo not drawn)
28 | 1.82 | CCS(=O)c1sc(C(C)=O)c(N)c1C#N (stereo not drawn)
29 | 3.18 | CC(=O)c1sc(S(C)=O)c(-c2ccc(Cl)cc2)c1N (stereo not drawn)
30 | 2.8 | CCC(=O)c1ccc(S(=O)CC)c([N+](=O)[O-])c1 (stereo not drawn)
31 | 2.44 | CCS(=O)c1nc(C)c([N+](=O)[O-])c(C)c1C#N (stereo not drawn)
32 | 3.82 | CC(=O)c1sc(S(C)=O)c(-c2ccc(Cl)cc2)c1C (stereo not drawn)
33 | 2.22 | CCS(=O)c1sc(C(C)=O)c(C)c1C#N (stereo not drawn)
34 | 2.29 | CCS(=O)c1cnc2ccccc2n1 (stereo not drawn)
35 | 2.22 | CCS(=O)c1sc(C#N)c(C)c1C(C)=O (stereo not drawn)
36 | 2.02 | COc1c(C#N)sc(S(C)=O)c1C#N (stereo not drawn)
37 | 2.27 | CCOC(=O)c1cc(C#N)c(S(C)=O)s1 (stereo not drawn)
38 | 2.15 | CCS(=O)c1ccc([N+](=O)[O-])cc1C#N (stereo not drawn)
39 | 2.06 | CCS(=O)c1sccc1[N+](=O)[O-] (stereo not drawn)
40 | 3.26 | CC(=O)c1sc(S(C)=O)c(-c2ccccc2)c1C (stereo not drawn)
41 | 1.78 | CCS(=O)c1sc(C#N)cc1C#N (stereo not drawn)
42 | 2.64 | CCCCS(=O)c1sc(C#N)cc1C#N (stereo not drawn)
43 | 2.19 | Cc1csc(S(C)=O)c1[N+](=O)[O-] (stereo not drawn)
44 | 2.1 | CCS(=O)c1c(Cl)cncc1Cl (stereo not drawn)
45 | 3.44 | CCCCS(=O)c1sc(C#N)c(Cl)c1C#N (stereo not drawn)
46 | 1.31 | CCS(=O)c1ccc(C(C)=O)s1 (stereo not drawn)
47 | 0.91 | CS(=O)c1ccsc1 (stereo not drawn)
48 | 2.81 | CCS(=O)c1sc(C(C)=O)c(C)c1[N+](=O)[O-] (stereo not drawn)
